{
  "source": "paper PMC9133015",
  "about": "(Nature Communications, 2022)",
  "key": {"[1]": {"target": "T1, DYRK1A (Homo sapiens, UniProt Q13627)", "T1 construct": "purchased Reaction Biology Corporation (assay service)", "assay": "DYRKs kinase activity assay (33P-ATP, DYRKtide substrate): DYRK1A", "assay_type": "biochemical"}, "[2]": {"target": "T2, panel of 370 protein kinases (Homo sapiens, UniProt P19784)", "T2 construct": "purchased Reaction Biology Corporation (assay service)", "T2 sequence (P19784 whole entry)": "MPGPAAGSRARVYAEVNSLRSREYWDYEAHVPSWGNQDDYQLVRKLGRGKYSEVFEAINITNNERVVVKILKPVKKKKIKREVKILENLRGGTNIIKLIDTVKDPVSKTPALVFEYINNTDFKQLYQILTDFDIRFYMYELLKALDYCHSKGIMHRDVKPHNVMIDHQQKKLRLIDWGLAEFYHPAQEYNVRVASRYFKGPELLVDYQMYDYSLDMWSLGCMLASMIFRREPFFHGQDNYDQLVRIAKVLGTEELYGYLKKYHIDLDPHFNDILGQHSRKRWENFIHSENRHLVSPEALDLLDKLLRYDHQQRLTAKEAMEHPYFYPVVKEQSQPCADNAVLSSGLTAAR", "assay": "Kinase inhibitor specificity profiling (Reaction Biology Corporation)", "assay_type": "biochemical", "set-up": "% Enzyme Activity (relative to DMSO controls): concentration or dose not given beside the values", "settings": "2 h, kinase CK2a2; read-out: % Enzyme Activity (relative to DMSO controls)"}, "[3]": {"target": "T3, panel of 370 protein kinases (Homo sapiens, UniProt P43250)", "T3 construct": "purchased Reaction Biology Corporation (assay service)", "assay": "Kinase inhibitor specificity profiling (Reaction Biology Corporation)", "assay_type": "biochemical", "set-up": "% Enzyme Activity (relative to DMSO controls): concentration or dose not given beside the values", "settings": "2 h, kinase GRK6; read-out: % Enzyme Activity (relative to DMSO controls)"}, "[4]": {"target": "T4, panel of 370 protein kinases (Homo sapiens, UniProt Q12852)", "T4 construct": "purchased Reaction Biology Corporation (assay service)", "T4 sequence (Q12852 whole entry)": "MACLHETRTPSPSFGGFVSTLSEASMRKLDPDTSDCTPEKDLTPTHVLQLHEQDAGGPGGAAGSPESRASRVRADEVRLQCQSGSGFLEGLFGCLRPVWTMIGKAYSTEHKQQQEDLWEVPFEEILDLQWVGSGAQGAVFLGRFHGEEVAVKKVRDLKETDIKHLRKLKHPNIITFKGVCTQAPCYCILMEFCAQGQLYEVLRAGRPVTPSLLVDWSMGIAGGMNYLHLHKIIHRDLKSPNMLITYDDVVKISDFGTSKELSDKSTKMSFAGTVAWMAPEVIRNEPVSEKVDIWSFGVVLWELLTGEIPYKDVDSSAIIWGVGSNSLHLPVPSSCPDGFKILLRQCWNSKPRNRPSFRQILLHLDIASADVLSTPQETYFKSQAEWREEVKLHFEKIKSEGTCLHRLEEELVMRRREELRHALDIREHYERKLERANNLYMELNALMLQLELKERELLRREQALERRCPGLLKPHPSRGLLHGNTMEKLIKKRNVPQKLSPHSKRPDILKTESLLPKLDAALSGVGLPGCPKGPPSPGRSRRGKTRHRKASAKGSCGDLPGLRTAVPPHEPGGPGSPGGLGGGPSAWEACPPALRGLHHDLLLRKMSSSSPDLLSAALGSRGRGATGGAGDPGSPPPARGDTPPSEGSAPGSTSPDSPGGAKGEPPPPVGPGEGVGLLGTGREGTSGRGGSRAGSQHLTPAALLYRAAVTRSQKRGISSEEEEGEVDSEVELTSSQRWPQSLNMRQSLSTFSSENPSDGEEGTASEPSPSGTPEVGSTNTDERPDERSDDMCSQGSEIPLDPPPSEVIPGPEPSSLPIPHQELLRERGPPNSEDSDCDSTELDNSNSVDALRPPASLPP", "assay": "Kinase inhibitor specificity profiling (Reaction Biology Corporation)", "assay_type": "biochemical", "set-up": "% Enzyme Activity (relative to DMSO controls): concentration or dose not given beside the values", "settings": "kinase DLK/MAP3K12"}, "[5]": {"target": "T5, panel of 370 protein kinases (Homo sapiens, UniProt Q14289)", "T5 construct": "purchased Reaction Biology Corporation (assay service)", "assay": "Kinase inhibitor specificity profiling (Reaction Biology Corporation)", "assay_type": "biochemical", "set-up": "% Enzyme Activity (relative to DMSO controls): concentration or dose not given beside the values", "settings": "2 h, kinase PYK2; read-out: % Enzyme Activity (relative to DMSO controls)"}, "[6]": {"target": "T6, panel of 370 protein kinases (Homo sapiens, UniProt Q96BR1)", "T6 construct": "purchased Reaction Biology Corporation (assay service)", "T6 sequence (Q96BR1 whole entry)": "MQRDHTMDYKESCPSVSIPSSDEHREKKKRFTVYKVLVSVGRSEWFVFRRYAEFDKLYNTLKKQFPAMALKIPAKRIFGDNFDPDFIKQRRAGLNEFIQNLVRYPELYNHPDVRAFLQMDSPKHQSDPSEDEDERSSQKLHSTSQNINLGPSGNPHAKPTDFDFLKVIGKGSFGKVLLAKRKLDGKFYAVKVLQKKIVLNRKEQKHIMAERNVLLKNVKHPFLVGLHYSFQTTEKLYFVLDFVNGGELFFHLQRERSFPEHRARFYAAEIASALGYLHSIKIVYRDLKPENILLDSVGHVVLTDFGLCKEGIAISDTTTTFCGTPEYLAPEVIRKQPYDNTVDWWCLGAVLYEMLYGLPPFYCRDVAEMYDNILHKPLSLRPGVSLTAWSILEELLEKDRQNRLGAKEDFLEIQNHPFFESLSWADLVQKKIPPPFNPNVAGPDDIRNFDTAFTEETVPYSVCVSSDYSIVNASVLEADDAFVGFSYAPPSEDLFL", "assay": "Kinase inhibitor specificity profiling (Reaction Biology Corporation)", "assay_type": "biochemical", "set-up": "% Enzyme Activity (relative to DMSO controls): concentration or dose not given beside the values", "settings": "2 h, kinase SGK3/SGKL; read-out: % Enzyme Activity (relative to DMSO controls)"}, "[7]": {"target": "T7, panel of 370 protein kinases (Homo sapiens, UniProt Q96RG2)", "T7 construct": "purchased Reaction Biology Corporation (assay service)", "T7 sequence (Q96RG2 whole entry)": "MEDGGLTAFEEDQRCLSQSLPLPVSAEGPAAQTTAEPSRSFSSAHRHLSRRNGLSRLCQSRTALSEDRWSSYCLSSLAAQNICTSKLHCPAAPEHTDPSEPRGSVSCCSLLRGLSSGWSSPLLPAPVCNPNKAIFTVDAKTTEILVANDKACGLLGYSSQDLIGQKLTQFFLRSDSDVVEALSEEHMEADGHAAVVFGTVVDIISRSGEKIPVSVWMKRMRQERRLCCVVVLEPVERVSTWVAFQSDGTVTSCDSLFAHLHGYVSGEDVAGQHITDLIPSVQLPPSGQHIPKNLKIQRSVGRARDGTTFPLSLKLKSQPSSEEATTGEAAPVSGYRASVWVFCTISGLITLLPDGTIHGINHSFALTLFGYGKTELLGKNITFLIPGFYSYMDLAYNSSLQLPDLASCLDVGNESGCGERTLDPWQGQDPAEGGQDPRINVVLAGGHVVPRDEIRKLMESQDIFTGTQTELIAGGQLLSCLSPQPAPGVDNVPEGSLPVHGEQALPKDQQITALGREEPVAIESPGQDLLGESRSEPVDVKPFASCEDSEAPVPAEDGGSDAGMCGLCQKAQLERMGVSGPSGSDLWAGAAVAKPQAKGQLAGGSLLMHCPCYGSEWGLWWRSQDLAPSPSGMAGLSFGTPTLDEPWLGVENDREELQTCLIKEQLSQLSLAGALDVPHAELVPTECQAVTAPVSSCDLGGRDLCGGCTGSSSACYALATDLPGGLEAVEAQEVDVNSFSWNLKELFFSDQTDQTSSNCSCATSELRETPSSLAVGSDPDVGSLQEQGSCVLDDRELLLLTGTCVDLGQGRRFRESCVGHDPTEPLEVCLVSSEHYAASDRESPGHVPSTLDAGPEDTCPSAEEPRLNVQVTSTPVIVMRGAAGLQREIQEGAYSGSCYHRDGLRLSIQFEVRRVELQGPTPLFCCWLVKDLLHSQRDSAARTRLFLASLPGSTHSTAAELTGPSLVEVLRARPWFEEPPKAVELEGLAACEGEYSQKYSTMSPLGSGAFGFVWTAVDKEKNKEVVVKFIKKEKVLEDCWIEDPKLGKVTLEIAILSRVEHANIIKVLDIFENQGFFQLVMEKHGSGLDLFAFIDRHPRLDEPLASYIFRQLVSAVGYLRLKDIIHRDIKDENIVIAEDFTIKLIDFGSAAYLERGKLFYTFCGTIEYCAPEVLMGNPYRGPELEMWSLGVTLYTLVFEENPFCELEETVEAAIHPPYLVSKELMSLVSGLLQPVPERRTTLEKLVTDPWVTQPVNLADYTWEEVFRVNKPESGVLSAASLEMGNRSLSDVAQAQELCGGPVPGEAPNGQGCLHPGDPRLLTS", "assay": "Kinase inhibitor specificity profiling (Reaction Biology Corporation)", "assay_type": "biochemical", "set-up": "% Enzyme Activity (relative to DMSO controls): concentration or dose not given beside the values", "settings": "2 h, kinase PASK; read-out: % Enzyme Activity (relative to DMSO controls)"}, "[8]": {"target": "T8, panel of 370 protein kinases (Homo sapiens, UniProt Q9BZL6)", "T8 construct": "purchased Reaction Biology Corporation (assay service)", "T8 sequence (Q9BZL6 whole entry)": "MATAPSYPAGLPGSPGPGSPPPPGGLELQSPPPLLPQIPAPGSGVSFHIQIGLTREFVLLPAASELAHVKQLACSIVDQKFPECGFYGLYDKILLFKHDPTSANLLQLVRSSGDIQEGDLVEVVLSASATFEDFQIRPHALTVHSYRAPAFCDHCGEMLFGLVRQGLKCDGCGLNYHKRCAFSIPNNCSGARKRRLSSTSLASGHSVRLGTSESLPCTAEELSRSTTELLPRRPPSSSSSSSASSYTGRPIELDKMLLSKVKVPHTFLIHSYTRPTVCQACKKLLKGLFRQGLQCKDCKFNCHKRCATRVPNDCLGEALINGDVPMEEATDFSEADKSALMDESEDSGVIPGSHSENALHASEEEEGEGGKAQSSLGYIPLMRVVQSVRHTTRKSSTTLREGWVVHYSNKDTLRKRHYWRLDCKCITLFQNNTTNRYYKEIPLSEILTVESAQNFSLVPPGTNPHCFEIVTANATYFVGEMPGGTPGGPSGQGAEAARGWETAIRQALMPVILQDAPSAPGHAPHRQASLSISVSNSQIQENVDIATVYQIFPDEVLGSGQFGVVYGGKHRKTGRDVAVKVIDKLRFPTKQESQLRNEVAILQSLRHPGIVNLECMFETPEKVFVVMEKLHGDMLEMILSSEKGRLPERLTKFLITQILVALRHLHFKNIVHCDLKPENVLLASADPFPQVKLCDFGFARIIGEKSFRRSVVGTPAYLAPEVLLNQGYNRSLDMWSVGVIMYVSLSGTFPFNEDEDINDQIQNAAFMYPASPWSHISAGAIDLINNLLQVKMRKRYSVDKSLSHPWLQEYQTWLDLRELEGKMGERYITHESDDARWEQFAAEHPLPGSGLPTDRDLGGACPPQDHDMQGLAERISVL", "assay": "Kinase inhibitor specificity profiling (Reaction Biology Corporation)", "assay_type": "biochemical", "set-up": "% Enzyme Activity (relative to DMSO controls): concentration or dose not given beside the values", "settings": "2 h, kinase PKD2/PRKD2; read-out: % Enzyme Activity (relative to DMSO controls)"}, "[9]": {"target": "T9, panel of 370 protein kinases (Homo sapiens, UniProt Q9UF33)", "T9 construct": "purchased Reaction Biology Corporation (assay service)", "T9 sequence (Q9UF33 23-1036)": "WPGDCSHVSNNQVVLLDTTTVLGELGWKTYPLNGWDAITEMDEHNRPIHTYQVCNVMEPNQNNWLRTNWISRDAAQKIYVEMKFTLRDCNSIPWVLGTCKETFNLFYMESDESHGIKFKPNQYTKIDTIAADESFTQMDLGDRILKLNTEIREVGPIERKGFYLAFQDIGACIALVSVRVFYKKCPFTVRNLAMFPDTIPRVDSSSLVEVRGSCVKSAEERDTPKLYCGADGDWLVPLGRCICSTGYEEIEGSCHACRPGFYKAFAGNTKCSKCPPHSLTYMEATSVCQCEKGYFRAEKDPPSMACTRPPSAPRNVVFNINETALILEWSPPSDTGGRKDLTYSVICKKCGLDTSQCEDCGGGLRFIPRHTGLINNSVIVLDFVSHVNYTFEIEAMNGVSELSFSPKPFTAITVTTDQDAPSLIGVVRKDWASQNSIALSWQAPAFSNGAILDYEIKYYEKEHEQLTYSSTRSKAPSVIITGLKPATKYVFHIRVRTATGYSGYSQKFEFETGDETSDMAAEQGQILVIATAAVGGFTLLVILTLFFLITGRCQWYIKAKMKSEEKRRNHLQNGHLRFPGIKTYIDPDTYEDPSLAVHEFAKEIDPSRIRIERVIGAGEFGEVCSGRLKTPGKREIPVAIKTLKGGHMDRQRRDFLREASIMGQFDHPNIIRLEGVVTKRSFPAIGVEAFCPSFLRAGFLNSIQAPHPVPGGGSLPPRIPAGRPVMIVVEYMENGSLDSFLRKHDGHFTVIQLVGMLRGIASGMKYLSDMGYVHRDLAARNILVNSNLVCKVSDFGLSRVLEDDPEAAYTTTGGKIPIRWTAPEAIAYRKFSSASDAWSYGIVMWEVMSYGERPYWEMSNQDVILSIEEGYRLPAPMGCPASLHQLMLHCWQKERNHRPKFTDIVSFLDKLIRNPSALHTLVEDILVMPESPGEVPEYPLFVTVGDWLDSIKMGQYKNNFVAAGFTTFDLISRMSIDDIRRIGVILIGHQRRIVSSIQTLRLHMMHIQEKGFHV", "assay": "Kinase inhibitor specificity profiling (Reaction Biology Corporation)", "assay_type": "biochemical", "set-up": "% Enzyme Activity (relative to DMSO controls): concentration or dose not given beside the values", "settings": "2 h, kinase EPHA6; read-out: % Enzyme Activity (relative to DMSO controls)"}, "[10]": {"target": "T10, panel of 370 protein kinases (Homo sapiens, UniProt Q9Y2U5)", "T10 construct": "purchased Reaction Biology Corporation (assay service)", "assay": "Kinase inhibitor specificity profiling (Reaction Biology Corporation)", "assay_type": "biochemical", "set-up": "% Enzyme Activity (relative to DMSO controls): concentration or dose not given beside the values", "settings": "2 h, kinase MEKK2; read-out: % Enzyme Activity (relative to DMSO controls)"}, "[11]": {"system": "22Rv1 shDYRK2 cells", "assay": "Anti-proliferation activity assay (CCK8, 72 h)", "assay_type": "cell-based, human"}, "[12]": {"system": "DU145 shDYRK2 cells", "assay": "Anti-proliferation activity assay (CCK8, 72 h)", "assay_type": "cell-based, human"}, "[13]": {"system": "22Rv1 cells", "assay": "Real-time quantitative PCR (RRS1, GRWD1, CCNG2, YPEL3 mRNA)", "assay_type": "cell-based, human", "settings": "22Rv1, 1 μM, replicates"}, "[14]": {"settings": "Homo sapiens, 22Rv1, read-out: inhibitory rate (%) mean"}, "[15]": {"settings": "Homo sapiens, DU-145, read-out: inhibitory rate (%) mean"}},
  "note": "Several values for one entry are separate records, joined by “and”; a condition that tells them apart may be missing. Equal entries are not always repeated.",
  "data": [
    {"compound": "CCN1CCN(C(=O)c2ccc(Nc3ncc(F)c(-c4ccc5nc(N(C)C)sc5c4)n3)nc2)CC1", "note": "[YK-2-69]", "values": [
      {"measurement": "IC50", "setting": "[1]", "result": "> 1", "unit": "µM"},
      {"measurement": "% Inhibition DYRK1A", "setting": "[1]; 0.000508053 µM, duplicates", "result": "-3.57% and 0.43%"},
      {"measurement": "% Inhibition DYRK1A", "setting": "[1]; 0.00152416 µM, duplicates", "result": "-1.37% and 1.70%"},
      {"measurement": "% Inhibition DYRK1A", "setting": "[1]; 0.00457247 µM, duplicates", "result": "3.49% and -1.24%"},
      {"measurement": "% Inhibition DYRK1A", "setting": "[1]; 0.0137174 µM, duplicates", "result": "0.24% and -4.62%"},
      {"measurement": "% Inhibition DYRK1A", "setting": "[1]; 0.0411523 µM, duplicates", "result": "-1.12% and -1.40%"},
      {"measurement": "% Inhibition DYRK1A", "setting": "[1]; 0.123457 µM, duplicates", "result": 14.11, "unit": "%"},
      {"measurement": "inhibition at 0.123457 µM", "setting": "[1]; 0.123457 µM, duplicates", "result": 10.3, "unit": "%"},
      {"measurement": "% Inhibition DYRK1A", "setting": "[1]; 0.37037 µM, duplicates", "result": 34.28, "unit": "%"},
      {"measurement": "inhibition at 0.37037 µM", "setting": "[1]; 0.37037 µM, duplicates", "result": 26, "unit": "%"},
      {"measurement": "% Inhibition DYRK1A", "setting": "[1]; 1.11111 µM, duplicates", "result": 40.80, "unit": "%"},
      {"measurement": "inhibition at 1.11111 µM", "setting": "[1]; 1.11111 µM, duplicates", "result": 45.5, "unit": "%"},
      {"measurement": "% Inhibition DYRK1A", "setting": "[1]; 3.33333 µM, duplicates", "result": 66.09, "unit": "%"},
      {"measurement": "inhibition at 3.33333 µM", "setting": "[1]; 3.33333 µM, duplicates", "result": 64.9, "unit": "%"},
      {"measurement": "% Inhibition DYRK1A", "setting": "[1]; 10 µM, duplicates", "result": 69.07, "unit": "%"},
      {"measurement": "inhibition at 10 µM", "setting": "[1]; 10 µM, duplicates", "result": 68.2, "unit": "%"},
      {"measurement": "selectivity over DYRK1A", "setting": "[1]; vs DYRK2", "result": "more than 100 fold"},
      {"measurement": "remaining activity at 1 µM", "setting": "[2]", "result": 51.4, "unit": "%"},
      {"measurement": "remaining activity at 1 µM", "setting": "[3]", "result": 114, "unit": "%"},
      {"measurement": "% Enzyme Activity (relative to DMSO controls)", "setting": "[4]", "result": "98.52% and 93.92%"},
      {"measurement": "remaining activity at 1 µM", "setting": "[5]", "result": 110, "unit": "%"},
      {"measurement": "remaining activity at 1 µM", "setting": "[6]", "result": 95.6, "unit": "%"},
      {"measurement": "remaining activity at 1 µM", "setting": "[7]", "result": 98.3, "unit": "%"},
      {"measurement": "remaining activity at 1 µM", "setting": "[8]", "result": 80.8, "unit": "%"},
      {"measurement": "remaining activity at 1 µM", "setting": "[9]", "result": 104, "unit": "%"},
      {"measurement": "remaining activity at 1 µM", "setting": "[10]", "result": 113, "unit": "%"},
      {"measurement": "inhibitory activity on proliferation (in words)", "setting": "[11]; 22Rv1 shDYRK2 cells, even at 80 μM", "result": "almost no inhibitory activity"},
      {"measurement": "inhibition at 10 µM", "setting": "[11]; [14]", "result": 19.7, "unit": "%"},
      {"measurement": "inhibition at 2.5 µM", "setting": "[11]; [14]", "result": 17.3, "unit": "%"},
      {"measurement": "inhibition at 20 µM", "setting": "[11]; [14]", "result": 26.3, "unit": "%"},
      {"measurement": "inhibition at 0.625 µM", "setting": "[11]; Homo sapiens, 22Rv1 KD, inhibitor 0.625 uM, read-out: inhibitory rate (%) mean", "result": 9.79, "unit": "%"},
      {"measurement": "inhibition at 1.25 µM", "setting": "[11]; Homo sapiens, 22Rv1 KD, inhibitor 1.25 uM, read-out: inhibitory rate (%) mean", "result": 14.3, "unit": "%"},
      {"measurement": "inhibition at 5 µM", "setting": "[11]; Homo sapiens, 22Rv1 KD, inhibitor 5 uM, read-out: inhibitory rate (%) mean", "result": 19.2, "unit": "%"},
      {"measurement": "inhibition at 40 µM", "setting": "[11]; Homo sapiens, 22Rv1 KD, inhibitor 40 uM, read-out: inhibitory rate (%) mean", "result": 31.8, "unit": "%"},
      {"measurement": "inhibition at 80 µM", "setting": "[11]; Homo sapiens, 22Rv1 KD, inhibitor 80 uM, read-out: inhibitory rate (%) mean", "result": 43.8, "unit": "%"},
      {"measurement": "IC50", "setting": "[11]; Homo sapiens, 22Rv1 shDYRK2 cells, read-out: IC50 antiproliferative activity", "result": "> 80", "unit": "µM"},
      {"measurement": "inhibitory activity on proliferation (in words)", "setting": "[12]; DU145 shDYRK2 cells, even at 80 μM", "result": "almost no inhibitory activity"},
      {"measurement": "inhibition at 0.625 µM", "setting": "[12]; Homo sapiens, DU-145, DU145 KD, inhibitor 0.625 uM, read-out: inhibitory rate (%) mean", "result": 7.98, "unit": "%"},
      {"measurement": "inhibition at 1.25 µM", "setting": "[12]; Homo sapiens, DU-145, DU145 KD, inhibitor 1.25 uM, read-out: inhibitory rate (%) mean", "result": 10.3, "unit": "%"},
      {"measurement": "inhibition at 5 µM", "setting": "[12]; Homo sapiens, DU-145, DU145 KD, inhibitor 5 uM, read-out: inhibitory rate (%) mean", "result": 13.5, "unit": "%"},
      {"measurement": "inhibition at 10 µM", "setting": "[12]; Homo sapiens, DU-145, DU145 KD, inhibitor 10 uM, read-out: inhibitory rate (%) mean", "result": 15.4, "unit": "%"},
      {"measurement": "inhibition at 40 µM", "setting": "[12]; Homo sapiens, DU-145, DU145 KD, inhibitor 40 uM, read-out: inhibitory rate (%) mean", "result": 17.2, "unit": "%"},
      {"measurement": "inhibition at 80 µM", "setting": "[12]; Homo sapiens, DU-145, DU145 KD, inhibitor 80 uM, read-out: inhibitory rate (%) mean", "result": 18.1, "unit": "%"},
      {"measurement": "IC50", "setting": "[12]; Homo sapiens, DU-145, DU145 shDYRK2 cells, read-out: IC50 antiproliferative activity", "result": "> 80", "unit": "µM"},
      {"measurement": "inhibition at 2.5 µM", "setting": "[12]; [15]", "result": 11.8, "unit": "%"},
      {"measurement": "inhibition at 20 µM", "setting": "[12]; [15]", "result": 16, "unit": "%"},
      {"measurement": "Relative mRNA levels CCNG2", "setting": "[13]", "result": "2.36 and 2.34 and 2.68"},
      {"measurement": "Relative mRNA levels GRWD1", "setting": "[13]", "result": "0.83 and 0.9 and 0.89"},
      {"measurement": "Relative mRNA levels RRS1", "setting": "[13]", "result": "0.87 and 0.83 and 0.82"}
    ]}
  ]
}
